# Laboratory results reported in patent publication US20040138199A1, “Benzoxazines and derivatives thereof as therapeutic agents” (priority 2002, published 2004).
# Molecular target: T1, p101/p110γ protein (PI3Kγ) (Homo sapiens, UniProt P48736)
# T1 construct: HA; made in house; host or cells: Spodoptera frugiperda (Sf9) cells, baculovirus coinfection
# Test: PI3Kγ In Vitro Kinase Assay
# Assay type: biochemical
# Conditions: purified recombinant p101/p110γ with G protein β1/γ2 subunits; 20 μM ATP, 25 μM PIP2; 20 minutes at room temperature; radioactive PIP3 readout
# Outline: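 Baculovirus/Sf9-expressed p101/p110γ (~2.7 nM) with G protein β1/γ2, 20 μM ATP plus [γ-32P]ATP, PIP2/PE micelles (25 μM PIP2, 300 μM PE, 10 mM MgCl2) in HEPES buffer. Reaction 20 min at room temperature, stopped with H3PO4; radiolabelled PIP3 counted on filters to derive IC50 (μM).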
# T1 sequence (P48736 whole entry, species assumed): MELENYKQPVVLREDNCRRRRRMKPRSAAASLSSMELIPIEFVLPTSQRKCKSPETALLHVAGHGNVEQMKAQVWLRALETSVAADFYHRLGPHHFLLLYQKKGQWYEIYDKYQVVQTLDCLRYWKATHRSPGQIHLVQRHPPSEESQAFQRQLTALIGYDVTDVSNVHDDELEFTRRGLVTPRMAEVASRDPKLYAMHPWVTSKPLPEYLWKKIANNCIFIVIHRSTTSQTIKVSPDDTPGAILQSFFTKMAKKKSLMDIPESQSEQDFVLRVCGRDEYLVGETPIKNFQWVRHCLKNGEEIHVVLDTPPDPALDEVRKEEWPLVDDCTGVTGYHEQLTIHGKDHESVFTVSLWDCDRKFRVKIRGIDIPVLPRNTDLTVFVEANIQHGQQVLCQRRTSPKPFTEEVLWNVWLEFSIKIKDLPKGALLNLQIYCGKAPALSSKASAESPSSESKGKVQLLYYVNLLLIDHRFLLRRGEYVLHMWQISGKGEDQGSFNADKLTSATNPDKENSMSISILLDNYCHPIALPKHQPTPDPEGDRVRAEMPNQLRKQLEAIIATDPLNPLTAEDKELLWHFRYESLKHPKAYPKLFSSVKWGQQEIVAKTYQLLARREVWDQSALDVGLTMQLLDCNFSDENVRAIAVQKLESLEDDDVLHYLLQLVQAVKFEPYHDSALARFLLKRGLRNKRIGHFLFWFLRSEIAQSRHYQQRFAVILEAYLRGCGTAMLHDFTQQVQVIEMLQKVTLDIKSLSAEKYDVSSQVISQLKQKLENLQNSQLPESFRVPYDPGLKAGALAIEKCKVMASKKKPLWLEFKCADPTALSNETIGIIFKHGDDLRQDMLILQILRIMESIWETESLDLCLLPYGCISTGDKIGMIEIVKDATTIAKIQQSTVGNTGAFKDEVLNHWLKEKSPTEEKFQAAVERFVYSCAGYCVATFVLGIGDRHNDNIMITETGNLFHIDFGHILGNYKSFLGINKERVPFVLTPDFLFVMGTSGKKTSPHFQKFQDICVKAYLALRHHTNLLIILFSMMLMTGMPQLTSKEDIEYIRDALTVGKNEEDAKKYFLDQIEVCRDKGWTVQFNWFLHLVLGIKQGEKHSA
# T1 sequence (Q8WYR1 whole entry partner, species assumed): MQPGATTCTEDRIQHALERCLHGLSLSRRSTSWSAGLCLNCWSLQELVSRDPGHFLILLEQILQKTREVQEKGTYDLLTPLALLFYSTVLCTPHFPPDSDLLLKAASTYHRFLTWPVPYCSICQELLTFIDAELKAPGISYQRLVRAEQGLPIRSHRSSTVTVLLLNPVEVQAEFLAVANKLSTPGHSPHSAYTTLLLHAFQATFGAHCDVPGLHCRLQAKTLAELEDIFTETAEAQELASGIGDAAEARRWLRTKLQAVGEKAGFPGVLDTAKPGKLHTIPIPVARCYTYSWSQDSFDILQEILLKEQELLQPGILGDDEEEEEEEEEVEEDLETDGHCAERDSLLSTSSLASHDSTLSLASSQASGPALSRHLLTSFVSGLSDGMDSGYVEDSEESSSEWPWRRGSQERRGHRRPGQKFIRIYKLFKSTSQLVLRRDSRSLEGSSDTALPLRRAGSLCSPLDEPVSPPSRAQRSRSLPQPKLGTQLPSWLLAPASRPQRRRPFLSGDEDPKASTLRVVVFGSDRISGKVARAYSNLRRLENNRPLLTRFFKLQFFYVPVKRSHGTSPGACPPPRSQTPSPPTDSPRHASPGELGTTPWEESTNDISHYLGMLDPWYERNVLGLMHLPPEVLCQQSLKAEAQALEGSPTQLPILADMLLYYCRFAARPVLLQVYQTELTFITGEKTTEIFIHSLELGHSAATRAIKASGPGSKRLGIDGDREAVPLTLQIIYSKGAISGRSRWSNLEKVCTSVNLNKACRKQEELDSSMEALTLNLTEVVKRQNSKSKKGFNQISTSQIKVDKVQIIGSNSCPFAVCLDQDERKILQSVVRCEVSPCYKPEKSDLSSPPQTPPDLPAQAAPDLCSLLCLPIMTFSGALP
row,Compound,IC50 [nM]
1,"O=C1NC(=S)SC1=Cc1ccc2c(c1)N(C(=O)Nc1cccc(Cl)c1)CCO2 [Example 80, 6-(4-Oxo-2-thioxo-thiazolidin-5-ylidenemethyl)-2,3-dihydro-benzo[1,4]oxazine-4-carboxylic acid (3-chloro-phenyl)-amide]",2
2,"O=C1NC(=S)SC1=Cc1ccc2c(c1)N(C(=O)Nc1ccc(Oc3ccccc3)cc1)CCO2 [Example 66, 6-(4-Oxo-2-thioxo-thiazolidin-5-ylidenemethyl)-2,3-dihydro-1,4-benzoxazine-4-carboxylic acid (4-phenoxy-phenyl)-amide]",80
3,"O=C1NC(=S)SC1=Cc1ccc2c(c1)N(C(=O)c1cccs1)CCO2 [Example 42, 5-[4-(Thiophene-2-carbonyl)-3,4-dihydro-2H-1,4-benzoxazin-6-ylmethylene]-2-thioxo-thiazolidin-4-one]",150
4,"Cc1ccc(F)c(C(=O)N2CCOc3ccc(C=C4SC(=S)NC4=O)cc32)c1 [Example 89, 5-[4-(2-Fluoro-5-methyl-benzoyl)-3,4-dihydro-2H-benzo[1,4]oxazin-6-ethylene]-2-thioxo-thiazolidin-4-one]",200
5,"O=C1NC(=S)SC1=Cc1ccc2c(c1)N(C(=O)CCc1ccccc1)CCO2 [Example 70, 5-[4-(3-Phenyl-propionyl)-3,4-dihydro-2H-1,4-benzoxazin-6-ylmethylene]-2-thioxo-thiazolidin-4-one]",31
6,"5-[9-(2-Thiophen-2-yl-acetyl)-6,7,8,9-tetrahydro-5-oxa-9-aza-benzocyclohepten-2-ylmethylene]-2-thioxo-thiazolidin-4-one [Example 112]",1140
7,"Cc1cc(C(=O)N2CCOc3ccc(C=C4SC(=S)NC4=O)cc32)no1 [Example 52, 5-[4-(5-Methyl-isoxazole-3-carbonyl)-3,4-dihydro-2H-1,4-benzoxazin-6-ylmethylene]-2-thioxo-thiazolidin-4-one]",115
8,CC1CCCCC1CCC(=O)N1CCOc2ccc(C=C3SC(=S)NC3=O)cc21 (stereo not shown) [Example 87],120
9,"5-(9-Cyclopentanecarbonyl-6,7,8,9-tetrahydro-5-oxa-9-aza-benzocyclohepten-2-ylmethylene)-2-thioxo-thiazolidin-4-one [Example 111]",1000
10,"CC(C)(C)C(=O)N1CCOc2ccc(C=C3SC(=S)NC3=O)cc21 [Example 97, 5-[4-(2,2-Dimethyl-propionyl)-3,4-dihydro-2H-1,4-benzoxazin-6-ylmethylene]-2-thioxo-thiazolidin-4-one]",1610
11,"O=C1NC(=S)SC1=Cc1ccc2c(c1)N(C(=O)c1ccccc1)CCO2 [Example 1, 5-[4-(1-Phenyl-methanoyl)-3,4-dihydro-2H-benzo[1,4]oxazine-6-ylmethylene]-2-thioxo-thiazolidin-4-one]",56
12,"CCCCCCC(=O)N1CCOc2ccc(C=C3SC(=S)NC3=O)cc21 [Example 34, 5-(4-Heptanoyl-3,4-dihydro-2H-1,4-benzoxazin-6-ylmethylene)-2-thioxo-thiazolidin-4-one]",4
13,"O=C1NC(=S)SC1=Cc1ccc2c(c1)N(C(=O)NCCc1ccccc1)CCO2 [Example 65, 6-(4-Oxo-2-thioxo-thiazolidin-5-ylidenemethyl)-2,3-dihydro-1,4-benzoxazine-4-carboxylic acid phenethyl-amide]",17
14,"O=C1NC(=S)SC1=Cc1ccc2c(c1)N(CCc1ccccc1)CCCO2 [Example 16, 5-(9-Phenethyl-6,7,8,9-tetrahydro-5-oxa-9-aza-benzocyclohepten-2-ylmethylene)-2-thioxo-thiazolidin-4-one]",80
15,"Cc1ccc(OC(=O)N2CCOc3ccc(C=C4SC(=S)NC4=O)cc32)cc1 [Example 18, 6-(4-Oxo-2-thioxo-thiazolidin-5-ylidenemethyl)-2,3-dihydro-1,4-benzoxazine-4-carboxylic acid p-tolyl ester]",4
16,"Cc1cc(C)cc(NC(=O)N2CCOc3ccc(C=C4SC(=S)NC4=O)cc32)c1 [Example 79, 6-(4-Oxo-2-thioxo-thiazolidin-5-ylidenemethyl)-2,3-dihydro-benzo[14]oxazine-4-carboxylic acid (3,5-dimethyl-phenyl)-amide]",9
17,"COc1cc(NC(=O)N2CCOc3ccc(C=C4SC(=S)NC4=O)cc32)cc(OC)c1 [Example 67, 6-(4-Oxo-2-thioxo-thiazolidin-5-ylidenemethyl)-2,3-dihydro-1,4-benzoxazine-4-carboxylic acid (3,5-dimethoxy-phenyl)-amide]",39
18,"O=C1NC(=S)SC1=Cc1ccc2c(c1)N(C(=O)CSc1ccccc1)CCO2 [Example 40, 5-[4-(2-Phenylsulfanyl-acetyl)-3,4-dihydro-2H-1,4-benzoxazin-6-ylmethylene]-2-thioxo-thiazolidin-4-one]",12
19,"CC1CCCC(C(=O)N2CCOc3ccc(C=C4SC(=S)NC4=O)cc32)C1 (stereo not shown) [Example 85, 5-[4-(3-Methyl-cyclohexanecarbonyl)-3,4-dihydro-2H-benzo[1,4]oxazin-6-ethylene]-2-thioxo-thiazolidin-4-one]",12

row,Compound,IC50 [nM]
1,"O=C1NC(=S)SC1=Cc1ccc2c(c1)N(C(=O)c1cc(F)cc(F)c1)CCO2 [Example 46, 5-[4-(3,5-Difluoro-benzoyl)-3,4-dihydro-2H-1,4-benzoxazin-6-ylmethylene]-2-thioxo-thiazolidin-4-one]",372
2,"CCC(=O)N1CCOc2ccc(C=C3SC(=S)NC3=O)cc21 [Example 93, 4-(4-Propionyl-3,4-dihydro-2H-1,4-benzoxazin-6-ylmethylene)-2-thioxo-thiazolidin-4-one]",12
3,"O=C1NC(=S)SC1=Cc1ccc2c(c1)N(C(=O)Oc1cccc3ccccc13)CCO2 [Example 69, 6-(4-Oxo-2-thioxo-thiazolidin-5-ylidenemethyl)-2,3-dihydro-1,4-benzoxazine-4-carboxylic acid naphthalen-1-yl ester]",6
4,"4-[2-(4-Oxo-2-thioxo-thiazolidin-5-ylidenemethyl)-7,8-dihydro-6H-5-oxa-9-aza-benzocycloheptene-9-carbonyl]-benzonitrile [Example 121]",2610
5,"2-(4-Oxo-2-thioxo-thiazolidin-5-ylidenemethyl)-7,8-dihydro-6H-5-oxa-9-aza-benzocycloheptene-9-carboxylic acid p-tolyl ester [Example 107]",704
6,"5-[9-(5-tert-Butyl-2-methyl-furan-3-carbonyl)-6,7,8,9-tetrahydro-5-oxa-9-aza-benzocyclohepten-2-ylmethylene]-2-thioxo-thiazolidin-4-one [Example 125]",4600
7,"CCCC(=O)N1CCOc2ccc(C=C3SC(=S)NC3=O)cc21 [Example 94, 5-(4-Butyryl-3,4-dihydro-2H-1,4-benzoxazin-6-ylmethylene)-2-thioxo-thiazolidin-4-one]",10
8,"COc1ccc(NC(=O)N2CCOc3ccc(C=C4SC(=S)NC4=O)cc32)cc1OC [Example 75, 6-(4-Oxo-2-thioxo-thiazolidin-5-ylidenemethyl)-2,3-dihydro-benzo[14]oxazine-4-carboxylic acid (3,4-dimethoxy-phenyl)-aniide]",14
9,"O=C1NC(=S)SC1=Cc1ccc2c(c1)N(C(=O)c1ccno1)CCO2 [Example 49, 5-[4-(Isoxazole-5-carbonyl)-3,4-dihydro-2H-1,4-benzoxazin-6-ylmethylene]-2-thioxo-thiazolidin-4-one]",245
10,"O=C1NC(=S)SC1=Cc1ccc2c(c1)N(C(=O)Nc1ccc(Cl)c(Cl)c1)CCO2 [Example 78, 6-(4-Oxo-2-thioxo-thiazolidin-5-ylidenemethyl)-2,3-dihydro-benzo[1,4]oxazine-4-carboxylic acid (3,4-dichloro-phenyl)-amide]",5
11,"CCCCCCc1ccc(C(=O)N2CCOc3ccc(C=C4SC(=S)NC4=O)cc32)cc1 [Example 27, 5-[4-(4-Hexyl-benzoyl)-3,4-dihydro-2H-1,4-benzoxazin-6-ylmethylene]-2-thioxo-thiazolidin-4-one]",2020
12,"O=C1NC(=S)SC1=Cc1ccc2c(c1)N(C(=O)c1ccc(-c3ccccc3)cc1)CCO2 [Example 24, 5-[4-(Biphenyl-4-carbonyl)-3,4-dihydro-2H-1,4-benzoxazin-6-ylmethylene]-2-thioxo-thiazolidin-4-one]",560
13,"O=C1NC(=S)SC1=Cc1ccc2c(c1)NCCCO2 [Example 103, 5-(6,7,8,9-Tetrahydro-5-oxa-9-aza-benzocyclohepten-2-ylmethylene)-2-thioxo-thiazolidin-4-one]",445
14,COc1cc(OC)cc(C(=O)N2CCOc3ccc(C=C4SC(=S)NC4=O)cc32)c1 [Example 14],1130
15,"COC(=O)c1ccc(OC(=O)N2CCOc3ccc(C=C4SC(=S)NC4=O)cc32)cc1 [Example 50, 6-(4-Oxo-2-thioxo-thiazolidin-5-ylidenemethyl)-2,3-dihydro-1,4-benzoxazine-4-carboxylic acid 4-methoxycarbonyl-phenyl ester]",7
16,"O=C1NC(=S)SC1=Cc1ccc2c(c1)N(C(=O)C1CCCC1)CCO2 [Example 33, 5-(4-Cyclopentanecarbonyl-3,4-dihydro-2H-1,4-benzoxazin-6-ylmethylene)-2-thioxo-thiazolidin-4-one]",14
17,"Cc1cccc(C(=O)N2CCOc3ccc(C=C4SC(=S)NC4=O)cc32)c1 [Example 23, 5-[4-(3-Methyl-benzoyl)-3,4-dihydro-2H-1,4-benzoxazin-6-ylmethylene]-2-thioxo-thiazolidin-4-one]",101
18,"2-(4-Oxo-2-thioxo-thiazolidin-5-ylidenemethyl)-7,8-dihydro-6H-5-oxa-9-aza-benzocycloheptene-9-carboxylic acid (3,5-dimethoxy-phenyl)-amide [Example 113]",1320
